Values after ≈ are worked out from the molar mass of the structure shown. Read-outs that look alike come from different tables or passages of the source.
Experiments:
Format in all cases: cell-based
[1] = system: Staphylococcus epidermidis 3519; assay: In vitro antibacterial activity, agar dilution MIC; conditions: S. epidermidis 3519, Brain Heart Infusion agar, 20-24 hours, read-out: MIC
Experimental: (§1) The antimicrobial spectra of a number of compounds of the invention were tested by the following method:
(§2) Twelve petri dishes containing successive aqueous dilutions of the test compound mixed with 10 ml of sterilized Brain Heart Infusion agar (Difco 0418-01-5) are prepared. Each plate is inoculated with 1:100 (or 1:10 for slow growing strains, primarily Micrococcus and Streptococcus) dilutions of up to 32 different microorganisms, using a Steers replicator block The inoculated plates are incubated at 35°-37° C. for 20-24 hours. In addition, a control plate, using BHI agar containing no test compound, is prepared and incubated at the beginning and end of each test.
(§3) An additional plate containing a compound having known susceptibility patterns for the organisms being tested and belonging to the same antibiotic class as the test compound is also prepared and incubated as a further control, as well as to provide test-to-test comparability. Erythromycin A was used for this purpose.
(§4) After incubation, each disk is read. The MIC is defined as the lowest concentration of drug yielding no growth, a slight haze, or sparsely isolated colonies on the inoculum spot as compared to the growth control.

[2] = system: Micrococcus luteus ATCC 4698; assay: In vitro antibacterial activity, agar dilution MIC
Experimental: as §1, §2, §3, §4

[3] = system: Streptococcus bovis A5169; assay: In vitro antibacterial activity, agar dilution MIC; conditions: read-out: MIC
Experimental: as §1, §2, §3, §4

[4] = system: Enterococcus faecium ATCC 8043; assay: In vitro antibacterial activity, agar dilution MIC
Experimental: as §1, §2, §3, §4

[5] = system: Staphylococcus aureus CMX 553; assay: In vitro antibacterial activity, agar dilution MIC; conditions: CMX553, S. aureus CMX 553, Brain Heart Infusion agar, 20-24 hours, read-out: MIC
Experimental: as §1, §2, §3, §4

[6] = system: Staphylococcus aureus NCTC 10649; assay: In vitro antibacterial activity, agar dilution MIC; conditions: NCTC10649, S. aureus NCTC 10649, Brain Heart Infusion agar, 20-24 hours, read-out: MIC
Experimental: as §1, §2, §3, §4

[7] = system: Escherichia coli H560; assay: In vitro antibacterial activity, agar dilution MIC
Experimental: as §1, §2, §3, §4

[8] = system: Staphylococcus aureus 45; assay: In vitro antibacterial activity, agar dilution MIC
Experimental: as §1, §2, §3, §4

[9] = system: Staphylococcus aureus 642A; assay: In vitro antibacterial activity, agar dilution MIC; conditions: S. aureus 642A, Brain Heart Infusion agar, 20-24 hours, read-out: MIC
Experimental: as §1, §2, §3, §4

[10] = system: Staphylococcus aureus A5177; assay: In vitro antibacterial activity, agar dilution MIC; conditions: S. aureus A5177, Brain Heart Infusion agar, 20-24 hours, read-out: MIC
Experimental: as §1, §2, §3, §4

[11] = system: Streptococcus agalactiae CMX 508; assay: In vitro antibacterial activity, agar dilution MIC
Experimental: as §1, §2, §3, §4

[12] = system: Escherichia coli Juhl; assay: In vitro antibacterial activity, agar dilution MIC
Experimental: as §1, §2, §3, §4

[13] = system: Streptococcus pyogenes 2548 INDUC; assay: In vitro antibacterial activity, agar dilution MIC; conditions: S. pyogenes 2548 INDUC, Brain Heart Infusion agar, 20-24 hours, read-out: MIC
Experimental: as §1, §2, §3, §4

[14] = system: Escherichia coli DC-2; assay: In vitro antibacterial activity, agar dilution MIC
Experimental: as §1, §2, §3, §4

[15] = system: Streptococcus pyogenes 930 CONST; assay: In vitro antibacterial activity, agar dilution MIC; conditions: 930CONST
Experimental: as §1, §2, §3, §4

[16] = system: Streptococcus pyogenes EES61; assay: In vitro antibacterial activity, agar dilution MIC; conditions: S. pyogenes EES61, Brain Heart Infusion agar, 20-24 hours, read-out: MIC
Experimental: as §1, §2, §3, §4

[17] = system: Micrococcus luteus ATCC 9341; assay: In vitro antibacterial activity, agar dilution MIC
Experimental: as §1, §2, §3, §4

[18] = system: Escherichia coli SS; assay: In vitro antibacterial activity, agar dilution MIC; conditions: read-out: MIC
Experimental: as §1, §2, §3, §4

[19] = system: Staphylococcus aureus ATCC 6538P; assay: In vitro antibacterial activity, agar dilution MIC; conditions: ATCC6538P
Experimental: as §1, §2, §3, §4

[20] = system: Staphylococcus aureus 45 RAR 2; assay: microbe, parasite or virus in culture; conditions: 45RAR2
Experimental: as §1, §2, §3, §4

[21] = S. bovis A5169, Brain Heart Infusion agar, 20-24 hours
[22] = E. coli H560, Brain Heart Infusion agar, 20-24 hours, read-out: MIC
[23] = CMX508, S. agalactiae CMX 508, Brain Heart Infusion agar, 20-24 hours, read-out: MIC
[24] = ATCC9341, M. luteus ATCC 9341, Brain Heart Infusion agar, 20-24 hours, read-out: MIC
[25] = S. aureus ATCC 6538P, Brain Heart Infusion agar, 35-37° C., 20-24 hours, read-out: MIC
[26] = ATCC4698, M. luteus ATCC 4698, Brain Heart Infusion agar, 20-24 hours, read-out: MIC
[27] = ATCC8043, E. faecium ATCC 8043, Brain Heart Infusion agar, 20-24 hours, read-out: MIC
[28] = S. aureus 45, Brain Heart Infusion agar, 20-24 hours, read-out: MIC
[29] = E. coli Juhl, Brain Heart Infusion agar, 20-24 hours, read-out: MIC
[30] = DC2, E. coli DC-2, Brain Heart Infusion agar, 20-24 hours, read-out: MIC
[31] = E. coli SS, Brain Heart Infusion agar, 20-24 hours

| Structure (SMILES) | MIC [1] [µg/mL] | MIC ([2]; ATCC4698) [µg/mL] | MIC [3, 21] [µg/mL] | MIC [5] [µg/mL] | MIC [6] [µg/mL] | MIC [7, 22] [µg/mL] | MIC [8]; 45 [µg/mL] | MIC [9] [µg/mL] | MIC [10] [µg/mL] | MIC [11, 23] [µg/mL] | MIC [12] [µg/mL] | MIC [13] [µg/mL] | MIC ([14]; DC2) [µg/mL] | MIC [15] [µg/mL] | MIC [16] [µg/mL] | MIC [17, 24] [µg/mL] | MIC [18] [µg/mL] | MIC [19, 25] [µg/mL] | MIC [20] [µg/mL] | MIC [2, 26] [µg/mL] | other results |
| --- | --- | --- | --- | --- | --- | --- | --- | --- | --- | --- | --- | --- | --- | --- | --- | --- | --- | --- | --- | --- | --- |
| CC[C@H]1OC(=O)[C@H](C)[C@@H](O[C@H]2C[C@@](C)(OC)[C@@H](N)[C@H](C)O2)[C@H](C)[C@@H](O[C@@H]2O[C@H](C)C[C@H](N(C)C)[C@H]2O)[C@](C)(O)C[C@@H](C)[C@@H](N2CCOCC2)[C@H](C)[C@@H](O)[C@]1(C)O [Example 33] | 0.78 (≈ 0.97 µM) | 0.39 (≈ 0.485 µM) | 0.05 (≈ 0.0622 µM) | 0.78 (≈ 0.97 µM) | 0.78 (≈ 0.97 µM) | 3.1 (≈ 3.86 µM) | 0.39 (≈ 0.485 µM) | 0.78 (≈ 0.97 µM) | 6.2 (≈ 7.71 µM) | 0.1 (≈ 0.124 µM) | 12.5 (≈ 15.5 µM) | 50 (≈ 62.2 µM) | 6.2 (≈ 7.71 µM) | > 100 | 0.1 (≈ 0.124 µM) | 0.05 (≈ 0.0622 µM) | 0.2 (≈ 0.249 µM) | 0.78 (≈ 0.97 µM) | 0.78 (≈ 0.97 µM) | – | MIC ([4]; ATCC8043, read-out: MIC): 0.2 µg/mL (≈ 0.249 µM) |
| CC[C@H]1OC(=O)[C@H](C)[C@@H](O[C@H]2C[C@@](C)(OC)[C@@H](O)[C@H](C)O2)[C@H](C)[C@@H](O[C@@H]2O[C@H](C)C[C@H](N(C)C)[C@H]2O)[C@](C)(O)C[C@@H](C)[C@@H](N2CCN(C(=O)c3ccccc3)CC2)[C@H](C)[C@@H](O)[C@]1(C)O [Example 17] | 1.56 (≈ 1.72 µM) | – | 0.39 (≈ 0.429 µM) | 1.56 (≈ 1.72 µM) | 1.56 (≈ 1.72 µM) | > 100 | – | 1.56 (≈ 1.72 µM) | 12.5 (≈ 13.8 µM) | – | – | 25 (≈ 27.5 µM) | – | > 100 | 0.39 (≈ 0.429 µM) | – | – | 1.56 (≈ 1.72 µM) | 3.1 (≈ 3.41 µM) | 0.78 (≈ 0.859 µM) | MIC [4, 27]: 0.39 µg/mL (≈ 0.429 µM); MIC [8, 28]: 0.78 µg/mL (≈ 0.859 µM); MIC ([11]; CMX508, read-out: MIC): 0.2 µg/mL (≈ 0.22 µM); MIC [12, 29]: > 100 µg/mL; MIC [14, 30]: > 100 µg/mL; MIC ([17]; ATCC9341, read-out: MIC): 0.2 µg/mL (≈ 0.22 µM); MIC [18, 31]: 3.1 µg/mL (≈ 3.41 µM) |
| CC[C@H]1OC(=O)[C@H](C)[C@@H](O[C@H]2C[C@@](C)(OC)[C@@H](O)[C@H](C)O2)[C@H](C)[C@@H](O[C@@H]2O[C@H](C)C[C@H](N(C)C)[C@H]2O)[C@](C)(O)C[C@@H](C)[C@@H](N2CCS(=O)(=O)CC2)[C@H](C)[C@@H](O)[C@]1(C)O [Example 22] | 6.2 (≈ 7.27 µM) | – | 0.39 (≈ 0.457 µM) | 3.1 (≈ 3.63 µM) | 3.1 (≈ 3.63 µM) | > 100 | – | 6.2 (≈ 7.27 µM) | > 100 | 0.39 (≈ 0.457 µM) | – | 100 (≈ 117 µM) | – | > 100 | 0.39 (≈ 0.457 µM) | 0.39 (≈ 0.457 µM) | – | 3.1 (≈ 3.63 µM) | 6.2 (≈ 7.27 µM) | 3.1 (≈ 3.63 µM) | MIC [4, 27]: 1.56 µg/mL (≈ 1.83 µM); MIC [8, 28]: 6.2 µg/mL (≈ 7.27 µM); MIC [12, 29]: > 100 µg/mL; MIC [14, 30]: > 100 µg/mL; MIC [18, 31]: 1.56 µg/mL (≈ 1.83 µM) |
| CC[C@H]1OC(=O)[C@H](C)[C@@H](O[C@H]2C[C@@](C)(OC)[C@@H](O)[C@H](C)O2)[C@H](C)[C@@H](O[C@@H]2O[C@H](C)C[C@H](N(C)C)[C@H]2O)[C@](C)(O)C[C@@H](C)[C@@H](N2CCCC(C)(C)C2)[C@H](C)[C@@H](O)[C@]1(C)O [Example 1] | 0.78 (≈ 0.938 µM) | 0.1 (≈ 0.12 µM) | – | 0.78 (≈ 0.938 µM) | 0.78 (≈ 0.938 µM) | – | 0.39 (≈ 0.469 µM) | 0.78 (≈ 0.938 µM) | 6.2 (≈ 7.46 µM) | 0.1 (≈ 0.12 µM) | 25 (≈ 30.1 µM) | – | 50 (≈ 60.2 µM) | > 100 | 0.1 (≈ 0.12 µM) | 0.05 (≈ 0.0602 µM) | 0.2 (≈ 0.241 µM) | – | 0.78 (≈ 0.938 µM) | – | MIC [3]: 0.02 µg/mL (≈ 0.0241 µM); MIC ([4]; ATCC8043): 0.1 µg/mL (≈ 0.12 µM); MIC ([7]; H560): 6.2 µg/mL (≈ 7.46 µM); MIC [19]: 0.39 µg/mL (≈ 0.469 µM) |
